The nature of data set [1]: Dissolution test, USP apparatus 2, paddle agitation at 50 rpm, Milli-Q water. It is filed as physicochemical. To be noted: 25° C., 0.1 mg/mL final. As to the method: The dissolution medium was Milli-Q water maintained at a temperature of 25° C. The effervescent formulations were added directly to the water in the correct amount to achieve a final concentration of 0.1 mg/mL of florfenicol. Aliquots of the resulting solution were withdrawn and analyzed using either UV-VIS spectrophotometry or HPLC, the latter to exclude excipient contribution or degradation of florfenicol. For HPLC analysis, an organic/aqueous mobile phase was used for the separation on a C18, reverse phase column. Detection was performed by UV absorption spectrometry. The percent dissolved was calculated versus an external reference standard prepared at the nominal concentration of the analyte. Pure florfenicol was analyzed as a comparator to assess the effectiveness of the effervescent formulation. Referring now to the tables below, it can be seen that pure florfenicol was only 25% dissolved in 15 minutes and 43% dissolved within 60 minutes. […] Therefore, the effervescent formulation increased the florfenicol rate of dissolution and allowed a complete dissolution within 5 minutes of the addition to water.

For data set [2] the following is noted: stated in background, no method; cited from earlier work.

With `CS(=O)(=O)c1ccc([C@@H](O)[C@@H](CF)NC(=O)C(Cl)Cl)cc1` (relative stereo) [Pure Florfenicol, [R-(R*, S*)]-2,2-Dichloro-N-[1-(fluoromethyl)-2-hydroxy-2-[4-[(methylsulfonyl)phenyl]-ethyl]acetamide], the “% Drug in Solution” value is 0% in data set [1] (Time 0, pure florfenicol in Milli-Q water); 25% in data set [1] (Time 15 (minutes), Milli-Q water); 35% in data set [1] (Time 30 (minutes), Milli-Q water); 36% in data set [1] (Time 45 (minutes), Milli-Q water); 43% in data set [1] (Time 60 (minutes), Milli-Q water). Further, in data set [2], the water-solubility was 1230 µg/mL.

The record behind these values is patent US20080145317A1, “EFFERVESCENT FORMULATIONS OF FLORFENICOL FOR ADDITION IN DRINKING WATER SYSTEMS” (Schering Corporation, priority 2006, published 2008).
